Measured values as given in ChEMBL document CHEMBL1909046, “DrugMatrix in vitro pharmacology data”.

Key:
[1] = biological target: Vasopressin V1a receptor (Homo sapiens, UniProt P37288); type: cell membranes, Membrane; conditions: hek293; further: in other assays of this panel Not Active means under 50% inhibition at 10 µM
[2] = biological target: T1, C-X-C chemokine receptor type 2 (Homo sapiens, UniProt P25025); type: cell membranes, Membrane; conditions: cho-k1; further: in other assays of this panel Not Active means under 50% inhibition at 10 µM
T1 sequence (P25025 whole entry): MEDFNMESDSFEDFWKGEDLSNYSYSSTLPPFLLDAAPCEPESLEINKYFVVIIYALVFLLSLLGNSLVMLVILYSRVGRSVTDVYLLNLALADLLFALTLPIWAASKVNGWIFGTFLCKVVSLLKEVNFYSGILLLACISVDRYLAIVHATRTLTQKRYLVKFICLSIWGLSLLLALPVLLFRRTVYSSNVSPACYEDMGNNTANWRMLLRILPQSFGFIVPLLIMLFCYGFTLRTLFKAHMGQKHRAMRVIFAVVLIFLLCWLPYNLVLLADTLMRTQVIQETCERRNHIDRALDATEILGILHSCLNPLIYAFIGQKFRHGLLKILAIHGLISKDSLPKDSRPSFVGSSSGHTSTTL

[3] = biological target: cGMP-specific 3',5'-cyclic phosphodiesterase (Homo sapiens, UniProt O76074); test: DRUGMATRIX: Phosphodiesterase PDE5 enzyme inhibition (substrate: [3H]cGMP + cGMP); type: tissue-based, Platelet; conditions: platelet; Not Active = under 50% inhibition at 10 µM
[4] = biological target: T2, Muscarinic acetylcholine receptor M4 (Homo sapiens, UniProt P08173); type: cell membranes, CHO-K1, Membrane; conditions: cho-k1; further: in other assays of this panel Not Active means under 50% inhibition at 10 µM
T2 sequence (P08173 whole entry): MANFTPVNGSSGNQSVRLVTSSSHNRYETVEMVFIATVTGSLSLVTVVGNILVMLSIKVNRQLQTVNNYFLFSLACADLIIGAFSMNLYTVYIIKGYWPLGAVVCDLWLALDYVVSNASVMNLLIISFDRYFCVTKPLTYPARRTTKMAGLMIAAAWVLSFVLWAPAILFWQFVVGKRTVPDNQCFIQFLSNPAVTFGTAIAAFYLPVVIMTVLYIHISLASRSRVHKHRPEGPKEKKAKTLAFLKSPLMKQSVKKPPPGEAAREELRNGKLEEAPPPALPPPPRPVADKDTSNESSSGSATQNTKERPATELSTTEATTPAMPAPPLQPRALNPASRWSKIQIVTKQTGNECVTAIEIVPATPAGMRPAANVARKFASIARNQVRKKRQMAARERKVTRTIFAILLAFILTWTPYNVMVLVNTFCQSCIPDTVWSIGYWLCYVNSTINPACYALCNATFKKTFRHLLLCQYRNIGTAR

[5] = biological target: T3, 3-hydroxy-3-methylglutaryl-coenzyme A reductase (Homo sapiens, UniProt P04035); design: species or system Escherichia coli;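 further: enzyme inhibition assay of HMG-CoA reductase using radiolabeled [14C]HMG-CoA as substrate; in other assays of this panel Not Active means under 50% inhibition at 10 µM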
T3 sequence (P04035 whole entry): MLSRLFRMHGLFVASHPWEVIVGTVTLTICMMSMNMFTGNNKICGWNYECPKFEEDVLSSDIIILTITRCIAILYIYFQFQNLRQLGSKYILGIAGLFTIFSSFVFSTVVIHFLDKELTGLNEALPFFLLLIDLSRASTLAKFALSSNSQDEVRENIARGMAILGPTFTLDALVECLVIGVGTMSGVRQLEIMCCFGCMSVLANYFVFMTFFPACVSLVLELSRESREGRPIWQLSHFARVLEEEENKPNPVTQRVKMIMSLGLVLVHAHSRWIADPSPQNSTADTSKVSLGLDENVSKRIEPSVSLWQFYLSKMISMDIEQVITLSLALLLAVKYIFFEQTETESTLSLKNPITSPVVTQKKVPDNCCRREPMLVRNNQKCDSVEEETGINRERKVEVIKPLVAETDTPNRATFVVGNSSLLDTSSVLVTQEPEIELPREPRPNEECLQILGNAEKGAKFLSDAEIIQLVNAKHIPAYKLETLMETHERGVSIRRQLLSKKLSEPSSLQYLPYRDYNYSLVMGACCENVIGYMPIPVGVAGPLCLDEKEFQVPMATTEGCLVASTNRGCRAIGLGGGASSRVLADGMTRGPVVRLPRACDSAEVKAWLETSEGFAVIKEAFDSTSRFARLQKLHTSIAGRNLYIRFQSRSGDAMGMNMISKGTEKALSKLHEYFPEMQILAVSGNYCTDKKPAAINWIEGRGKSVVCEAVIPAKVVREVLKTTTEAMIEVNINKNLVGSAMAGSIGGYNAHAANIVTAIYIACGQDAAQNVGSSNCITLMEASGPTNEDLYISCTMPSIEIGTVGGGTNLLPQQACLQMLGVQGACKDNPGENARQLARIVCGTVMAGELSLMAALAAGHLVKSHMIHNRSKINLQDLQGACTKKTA

[6] = biological target: T4, Neutrophil elastase (Homo sapiens, UniProt P08246); type: tissue-based
T4 sequence (P08246 whole entry): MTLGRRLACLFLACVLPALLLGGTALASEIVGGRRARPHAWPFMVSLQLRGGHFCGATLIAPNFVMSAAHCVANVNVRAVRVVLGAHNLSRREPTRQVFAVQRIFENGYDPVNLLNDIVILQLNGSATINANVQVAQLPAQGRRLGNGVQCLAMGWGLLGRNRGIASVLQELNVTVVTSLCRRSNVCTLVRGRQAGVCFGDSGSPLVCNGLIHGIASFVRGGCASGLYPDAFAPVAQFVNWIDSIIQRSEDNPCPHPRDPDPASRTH

[7] = biological target: T5, Amine oxidase [flavin-containing] A (Homo sapiens, UniProt P21397); test: DRUGMATRIX: Monoamine Oxidase MAO-A enzyme inhibition (substrate: Kynuramine); design: species or system BTI-TN-5B1-4; conditions: bti-tn-5b1-4; Not Active = under 50% inhibition at 10 µM
T5 sequence (P21397 whole entry): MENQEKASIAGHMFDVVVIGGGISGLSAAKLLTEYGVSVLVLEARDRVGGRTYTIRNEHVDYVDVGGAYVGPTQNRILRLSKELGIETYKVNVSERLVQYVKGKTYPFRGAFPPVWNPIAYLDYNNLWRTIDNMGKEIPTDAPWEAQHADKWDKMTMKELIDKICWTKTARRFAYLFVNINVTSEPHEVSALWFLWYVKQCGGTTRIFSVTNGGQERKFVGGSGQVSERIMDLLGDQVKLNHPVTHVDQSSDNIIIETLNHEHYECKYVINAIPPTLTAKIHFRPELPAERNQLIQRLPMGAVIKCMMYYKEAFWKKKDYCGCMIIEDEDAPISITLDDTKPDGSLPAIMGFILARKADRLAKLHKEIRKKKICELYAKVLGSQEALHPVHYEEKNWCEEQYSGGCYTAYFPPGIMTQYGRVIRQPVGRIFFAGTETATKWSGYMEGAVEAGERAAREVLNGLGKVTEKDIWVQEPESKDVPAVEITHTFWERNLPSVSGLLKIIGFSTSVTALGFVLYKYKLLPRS

Vasopressin V1a receptor, sequence (P37288 whole entry): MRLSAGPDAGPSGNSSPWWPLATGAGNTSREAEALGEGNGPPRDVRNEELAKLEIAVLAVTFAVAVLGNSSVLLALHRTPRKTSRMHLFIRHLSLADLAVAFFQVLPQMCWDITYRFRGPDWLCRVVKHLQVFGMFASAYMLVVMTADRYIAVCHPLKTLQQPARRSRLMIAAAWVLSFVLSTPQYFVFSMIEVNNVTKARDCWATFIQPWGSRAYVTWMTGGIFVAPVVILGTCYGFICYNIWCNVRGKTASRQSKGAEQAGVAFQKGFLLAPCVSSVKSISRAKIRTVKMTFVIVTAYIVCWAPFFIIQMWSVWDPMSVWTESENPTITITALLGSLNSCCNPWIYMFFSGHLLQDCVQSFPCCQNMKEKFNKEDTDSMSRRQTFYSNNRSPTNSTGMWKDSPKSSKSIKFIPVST

C[N+](C)(C)CCOC(=O)CCC(=O)OCC[N+](C)(C)C.[Cl-].[Cl-] [SUCCINYLCHOLINE CHLORIDE]
Not Active: IC50 [1] | IC50 [2] | IC50 [3] | IC50 [4] | IC50 [5] | IC50 [6] | IC50 [7]

TRANSPLATIN
Not Active: IC50 [1] | Ki [1] | IC50 [2] | Ki [2] | IC50 [3] | Ki [3] | IC50 [4] | Ki [4] | IC50 [5] | Ki [5] | IC50 [6] | Ki [6] | IC50 [7] | Ki [7]

C[C@@](Cc1ccc(O)c(O)c1)(NN)C(=O)O.O [CARBIDOPA]
Not Active: IC50 [1] | IC50 [2] | IC50 [3] | IC50 [4] | IC50 [5] | IC50 [6] | IC50 [7]

ZIRCONIUM(IV) CHLORIDE
Not Active: IC50 [1] | Ki [1] | IC50 [2] | Ki [2] | IC50 [3] | Ki [3] | IC50 [4] | Ki [4] | IC50 [5] | Ki [5] | IC50 [6] | Ki [6] | IC50 [7] | Ki [7]

CN(C)C(=O)C(CCN1CCC(O)(c2ccc(Cl)cc2)CC1)(c1ccccc1)c1ccccc1 [LOPERAMIDE]
Not Active: IC50 [1] | IC50 [2] | IC50 [3] | IC50 [4] | IC50 [5] | IC50 [6] | IC50 [7]

O=C(O)c1ccccc1O [SALICYLIC ACID]
Not Active: IC50 [1] | IC50 [2] | IC50 [3] | IC50 [4] | IC50 [5] | IC50 [6] | IC50 [7]
